Reference: publication PMC3242765, “Inhibitors of Alphavirus Entry and Replication Identified with a Stable Chikungunya Replicon Cell Line and Virus-Based Assays” (PLoS ONE, 2011)

test system: SFV-Rluc; conditions: not given

Row | Structure (SMILES) | SFV replication % left (surviving fraction, remaining percentage of SFV replication)
1 | Cc1nnc(NS(=O)(=O)c2ccc(N)cc2)s1 [PC-203] | 89.6%
2 | CCC1(c2ccccc2)C(=O)N=C([O-])NC1=O.[Na+] (stereo not shown) [PC-189] | 88.1%
3 | CC(C)NCC(O)COc1cccc2ccccc12.Cl (stereo not shown) [PC-174] | 74.0%
4 | Cc1nnc(NS(=O)(=O)c2ccc(N)cc2)s1 [PC-200] | 100.4%
5 | CC(CN1c2ccccc2Sc2ccccc21)N(C)C.Cl (stereo not shown) [PC-169] | 48.8%
6 | Oc1cccc(O)c1 [PC-181] | 67.1%
7 | CC(Cc1ccc2c(c1)OCO2)NCC(O)c1ccc(O)c(O)c1.Cl (stereo not shown) [PC-177] | 128.4%
8 | CC(C)[N+](C)(CCOC(=O)C1c2ccccc2Oc2ccccc21)C(C)C.[Br-] [PC-171] | 77.0%
9 | CCOc1ccc(NC(C)=O)cc1 [PC-151] | 80.6%
10 | CCN(CC)CCOC(=O)c1ccc(N)cc1.Cl [PC-167] | 105.4%
11 | CC(C)(C)NCC(O)c1ccc(O)c(CO)c1.CC(C)(C)NCC(O)c1ccc(O)c(CO)c1.O=S(=O)(O)O (stereo not shown) [PC-185] | 105.0%

same assay, conditions: Supplementary Table 2, moderately active compounds (25 - 60% remaining), primary screen at 50 µM

Row | Structure (SMILES) | % left (remaining SFV replication)
12 | CCN(CC)c1ccc2cc(-c3nc4ccccc4[nH]3)c(=O)oc2c1 [NC-017] | 37.3%
13 | CCCCNc1ccc(C(=O)OCCN(C)C)cc1.Cl [PC-032] | 45.2%
14 | O=C(c1ccccc1)c1cc2c(ccc3ccccc32)oc1=O [NC-006] | 39.9%
15 | COc1cc(C=O)ccc1O [NC-106] | 47.9%
16 | C[C@@H]1O[C@@H](OC[C@H]2O[C@@H](Oc3c(-c4ccc(O)c(O)c4)oc4cc(O)cc(O)c4c3=O)[C@H](O)[C@@H](O)[C@@H]2O)[C@H](O)[C@H](O)[C@H]1O [NC-090] | 44.1%
17 | O=C1CN=C(c2ccccc2)c2cc([N+](=O)[O-])ccc2N1 [PC-130] | 46.6%

same assay, conditions: primary screening of chemical libraries; compounds tested at 50 µM

Row | Structure (SMILES) | SFV replication % left
18 | O=c1c(O)c(-c2ccc(O)c(O)c2)oc2cc(O)cc(O)c12 [NC-080] | 125.8%
19 | CC(C)NCC(O)COc1ccc(CC(N)=O)cc1 (stereo not shown) [PC-017] | 44.2%
20 | C[C@](N)(Cc1ccc(O)c(O)c1)C(=O)O [PC-118] | 99.1%
21 | C#C[C@]1(O)CC[C@H]2[C@@H]3CCC4=CC(=O)CC[C@@H]4[C@H]3CC[C@@]21C [PC-134] | 107.8%
22 | Nc1ccc(C(=O)O)cc1 [PC-010] | 56.5%
23 | O=C(O)c1cc(O)cc(O)c1 [NC-027] | 6.9%
24 | Cl.Cl.OCCN1CCN(CC/C=C2/c3ccccc3Sc3ccc(C(F)(F)F)cc32)CC1 [PC-082] | 92.6%
25 | CCN(CC)c1ccc2cc(-c3nc4ccccc4[nH]3)c(=O)oc2c1 [NC-017] | 37.3%
26 | Cc1cc(=O)n(-c2ccccc2)n1C [PC-015] | 60.1%
27 | CC(C)(C)NC[C@H](O)COc1cccc2c1CCCC2=O [PC-027] | 59.6%
28 | C[N+]1(C)[C@@H]2CC[C@H]1C[C@@H](OC(=O)C(CO)c1ccccc1)C2.O=[N+]([O-])[O-] (stereo partly shown) [PC-018] | 46.8%
29 | CC(=O)c1cccc(O)c1 [NC-048] | 125.8%
30 | Cc1cc(=O)oc2cc(O)cc(O)c12 [NC-122] | 66.7%
31 | Cl.Cl.OCCOCCN1CCN(C(c2ccccc2)c2ccc(Cl)cc2)CC1 (stereo not shown) [PC-097] | 98.3%
32 | COc1ccc(C(=O)Cc2c(CCN(C)C)cc3c(c2OC)OCO3)c(C(=O)O)c1OC [PC-127] | 118.3%
33 | COC(=O)c1cc(O)c(O)c(O)c1 [NC-064] | 67.8%
34 | Br.CC(Cc1ccc(O)cc1)NCC(O)c1cc(O)cc(O)c1 (stereo not shown) [PC-081] | 106.6%
35 | NCC(O)c1cccc(O)c1 (stereo not shown) [PC-135] | 126.3%
36 | O=c1ccc2ccc(O)c(O)c2o1 [NC-112] | 90.6%
37 | Cc1ccc(C)c(O)c1 [NC-029] | 84.6%
38 | O=C(O)Cc1ccc(O)cc1 [NC-052] | 103.6%
39 | Cc1cc(N)c2ccccc2[n+]1CCCCCCCCCC[n+]1c(C)cc(N)c2ccccc21.[Cl-].[Cl-] [PC-056] | 62.5%
40 | Cc1ccc(O)c(O)c1 [NC-070] | 111.1%
41 | COc1ccc2oc(=O)cc(C)c2c1 [NC-119] | 66.6%
42 | CC(=O)Nc1nnc(S(N)(=O)=O)s1 [PC-003] | 71.3%
43 | CCN(CC)CCCC(C)Nc1ccnc2cc(Cl)ccc12.O=P(O)(O)O.O=P(O)(O)O (stereo not shown) [PC-044] | 12.2%
44 | COCCc1ccc(OCC(O)CNC(C)C)cc1.COCCc1ccc(OCC(O)CNC(C)C)cc1.O=C(O)C(O)C(O)C(=O)O (stereo not shown) [PC-122] | 65.7%

Row | Structure (SMILES) | SFV replication % left
45 | CCC(C)NCC(O)c1ccc2c(c1)CCCC2 (stereo not shown) [PC-030] | 73.1%
46 | CC(=O)NS(=O)(=O)c1ccc(N)cc1 [PC-005] | 63.2%
47 | CC(=O)Nc1ccccc1 [PC-002] | 57.3%
48 | Oc1cc(O)c2c(c1)O[C@H](c1ccc(O)c(O)c1)[C@H](O)[C@H]2c1c(O)cc(O)c2c1O[C@H](c1ccc(O)c(O)c1)[C@@H](O)C2 [NC-074] | 128.1%
49 | O=C1CC(=O)NC(=O)N1 [PC-021] | 48.8%
50 | O=c1ccc2ccc(O)c(O)c2o1 [NC-021] | 81.7%
51 | O=c1c(O)c(-c2cc(O)c(O)c(O)c2)oc2cc(O)cc(O)c12 [NC-068] | 2.0%
52 | COc1c2occc2cc2ccc(=O)oc12 [NC-129] | 86.7%
53 | COc1cc2ccc(=O)oc2c(O)c1O [NC-110] | 103.6%
54 | CCOc1ccc(NC(N)=O)cc1 [PC-071] | 103.3%
55 | CN(C)c1cccc2c(S(=O)(=O)Cl)cccc12 [NC-032] | 4.6%
56 | O.O.O=c1c(O)c(-c2ccc(O)cc2O)oc2cc(O)cc(O)c12 [NC-067] | 82.9%
57 | C[C@@H]1O[C@@H](Oc2c(-c3ccc(O)c(O)c3)oc3cc(O)cc(O)c3c2=O)[C@H](O)[C@H](O)[C@H]1O.O.O [NC-083] | 11.4%
58 | CCCCC1(CC)C(=O)NC(=O)NC1=O [PC-029] | 45.2%
59 | Oc1cc(O)c2cc(O)c(-c3ccc(O)c(O)c3)[o+]c2c1.[Cl-] [NC-019] | 24.5%
60 | O=c1c(-c2ccc(O)cc2)coc2cc(O)ccc12 [NC-020] | 76.6%
61 | CN(C)CCOC(c1ccccc1)c1ccccc1.Cl [PC-067] | 41.0%
62 | CCCOC(=O)c1cc(O)c(O)c(O)c1 [NC-076] | 33.6%
63 | O=C(O)c1cc(O)c(O)c(O)c1 [NC-041] | 148.8%
64 | CCCCNC(=O)NS(=O)(=O)c1ccc(N)cc1 [PC-033] | 83.9%
65 | CCN(CC)C(C)C(=O)c1ccccc1.Cl (stereo not shown) [PC-064] | 47.1%
66 | Cc1cccc(Nc2ccccc2C(=O)O)c1C [PC-108] | 103.5%
67 | CCCCNc1ccc(C(=O)OCCN(C)C)cc1.Cl [PC-032] | 45.4%
68 | O=C(O)/C=C/c1ccc(O)c(O)c1 [NC-010] | 98.7%
69 | CN1C(=O)CN=C(c2ccc(Cl)cc2)c2cc(Cl)ccc21 [PC-043] | 64.0%
70 | CN(C)CCC=C1c2ccccc2COc2ccccc21.Cl [PC-070] | 21.6%
71 | Cl.NCC(O)c1ccc(O)cc1 (stereo not shown) [PC-138] | 102.1%

Row | Structure (SMILES) | SFV replication % left
72 | CCCCC1C(=O)N(c2ccccc2)N(c2ccc(O)cc2)C1=O (stereo not shown) [PC-143] | 84.8%
73 | CCCCNc1ccc(C(=O)OCCN(C)C)cc1.Cl [PC-034] | 63.8%
74 | CC(C)NCC(O)c1ccccc1Cl.Cl.O (stereo not shown) [PC-051] | 63.7%
75 | CCCCNCC(O)c1ccc(O)cc1 (stereo not shown) [PC-019] | 67.1%
76 | O=C1O[C@H]([C@@H](O)CO)C(O)=C1O [NC-004] | 81.4%
77 | O=C(O)c1ccccc1 [NC-005] | 71.6%
78 | O=c1c(O)c(-c2ccc(O)c(O)c2)oc2cc(O)c(O)c(O)c12 [NC-079] | 90.2%
79 | Oc1cccc(O)c1O [NC-078] | 22.7%
80 | O=C1c2c(O)cc(O)cc2O[C@H](c2ccc(O)c(O)c2)[C@H]1O [NC-100] | 93.7%
81 | Cc1cc(C(C)(C)C)c(O)c(C(C)(C)C)c1 [NC-107] | 72.6%
82 | CCC(NC(C)C)C(O)c1ccc(O)c(O)c1 (stereo not shown) [PC-101] | 90.7%
83 | O=c1oc2ccccc2c(O)c1Cc1c(O)c2ccccc2oc1=O [PC-063] | 65.6%
84 | O=C(O)c1ccccc1C(=O)O [NC-073] | 143.7%
85 | COc1cc(OC)c2ccc(=O)oc2c1 [NC-128] | 67.4%
86 | Cc1ccc2oc(=O)ccc2c1 [NC-116] | 83.6%
87 | CC[C@H]1CN2CCc3cc(OC)c(OC)cc3[C@@H]2C[C@@H]1C[C@H]1NCCc2cc(OC)c(OC)cc21.Cl.Cl [PC-072] | 63.1%
88 | NS(=O)(=O)c1cc2c(cc1Cl)NCNS2(=O)=O [PC-091] | 121.2%
89 | O=C(c1ccccc1)c1cc2c(ccc3ccccc32)oc1=O [NC-006] | 39.9%
90 | COc1cc(C=O)ccc1O [NC-106] | 47.9%
91 | C[C@@H]1O[C@@H](OC[C@H]2O[C@@H](Oc3c(-c4ccc(O)c(O)c4)oc4cc(O)cc(O)c4c3=O)[C@H](O)[C@@H](O)[C@@H]2O)[C@H](O)[C@H](O)[C@H]1O [NC-090] | 44.1%
92 | O=C1CN=C(c2ccccc2)c2cc([N+](=O)[O-])ccc2N1 [PC-130] | 46.0%
93 | COc1ccc([C@@H]2CC(=O)c3c(O)cc(O[C@@H]4O[C@H](CO[C@@H]5O[C@@H](C)[C@H](O)[C@@H](O)[C@H]5O)[C@@H](O)[C@H](O)[C@H]4O)cc3O2)cc1O [NC-046] | 77.7%
94 | Cc1ncc([N+](=O)[O-])n1CCO [PC-121] | 69.2%
95 | OCc1ccccc1O[C@@H]1O[C@H](CO)[C@@H](O)[C@H](O)[C@H]1O [NC-091] | 104.4%
96 | COc1cc(-c2[o+]c3cc(O)cc(O[C@@H]4O[C@H](CO)[C@@H](O)[C@H](O)[C@H]4O)c3cc2O[C@@H]2O[C@H](CO)[C@@H](O)[C@H](O)[C@H]2O)cc(OC)c1O.[Cl-] [NC-063] | 15.4%
97 | CC(=O)OCC(=O)[C@@]1(O)CC[C@H]2[C@@H]3CCC4=CC(=O)CC[C@]4(C)[C@H]3[C@@H](O)C[C@@]21C [PC-092] | 116.8%
